Measured values: patent US8691790B2, “Therapy of neurological inflammatory diseases with (5'-deoxy-5'-adenosyl) cobamamide, recombinant human growth hormone, interleukins IL-1, IL-6, IL-11, epidermal growth factor, and physiotherapy” (priority 2009, dated 2014)
Entries after “also recorded” stand apart in the source; their conditions may differ.

Key:
[1] = tested on: Chronic Progressive forms of MS; conditions: human trials reported in the literature; cited from earlier work
[2] = tested on: Relapsing Remitting Multiple Sclerosis (RRMS); conditions: human trials reported in the literature; cited from earlier work
[3] = tested on: clinically definite MS patient in the Secondary Progressive stage of MS (SPMS); assay: Scoping experiment in therapy with daily AdoCbl injections in one MS patient; format: in vivo, human
Source text: The current patent, by Boucher, teaches the effective use of AdoCbl, by itself, for therapy of MS and other neurological inflammatory diseases and neurodegenerative diseases. […] Approximately 10 years ago the MS Patient was deemed to be in the Secondary Progressive Multiple Sclerosis (SPMS) stage due to the unremitting accumulation of disability. The MS Patient had loss of memory, cognitive impairment, loss of balance, fatigue, nocturia, not able to lift right foot from the floor, not able to raise right hand, not able to write with the right hand or to use a computer keyboard with the right hand, not able to grip with the right hand, not able to eat with a fork in the right hand, had poor heat tolerance, and was marginally ambulatory with a rollator. The MS patient was more affected on the right side than on the left, which prevented the use of a manual wheelchair. A scoping experiment in therapy with daily injections of 1000 mcg of AdoCbl was initiated. […] After three days, the injection size was increased to 5000 mcg of AdoCbl daily. The MS Patient had been making daily injections of 20 mg Copaxone, but these were stopped for about two months when the scoping experiment with daily injections of AdoCbl was initiated. […] The current patent, by Boucher, teaches that AdoCbl, by itself, provides effective therapy of MS and other inflammatory diseases, that AdoCbl facilitates remyelination, that AdoCbl stops secondary progression of disability in MS and allows extensive recovery from the symptoms of MS. The scoping experiment in therapy with AdoCbl was intended as a test of the etiological hypothesis that the enzyme ATP: Cob (I) alamin adenosyltransferase (ATR) in the CSF was a target of the immune system, which was a major factor in the development of MS. The results of the scoping experiment in therapy strongly support the proposed etiological hypothesis. There are missing details, potentially. Therefore, this patent is not to be restricted to addressing the proposed etiological hypothesis, as other etiological processes are possible.
Prior art in the patent literature and in the published medical literature for therapy of MS has no example of therapy that stops and reverses the progressive accumulation of disability.
A scoping experiment in therapy by parenteral injection of at a dose of between 1 μg and 2.5 g daily AdoCbl into a human subject with clinically definite MS in the secondary progressive stage was conducted.

Compound	benefit in chronic progressive MS [1]	effect on rate of relapse [2]	ambulation ([3]; 5000 mcg of AdoCbl daily, patient was marginally ambulatory with a rollator before)	effect on progression / accumulation of disability in MS ([3]; AdoCbl by itself, single SPMS patient, 98% pure AdoCbl, for more than one year)	ability to raise right hand ([3]; daily injections of 1000 mcg of AdoCbl, after three days, single SPMS patient)	recovery of lost abilities and MS symptoms ([3]; injection size increased to 5000 mcg of AdoCbl daily after three days, Copaxone stopped for about two months, single SPMS patient)	recovery of abilities and symptoms (summary statement) ([3]; parenteral injection, dose of between 1 μg and 2.5 g daily AdoCbl, human subject, secondary progressive MS)	need for continued AdoCbl injections ([3]; single SPMS patient)
Copolymer-1	no effective benefit	effective in lowering the rate of relapse	–	–	–	–	–	–
C/C1=C2/[N-]C([C@H](CC(N)=O)[C@@]2(C)CCC(=O)NC[C@@H](C)OP(=O)([O-])O[C@H]2[C@@H](O)[C@@H](n3cnc4cc(C)c(C)cc43)O[C@@H]2CO)[C@]2(C)N=C(/C(C)=C3N=C(/C=C4N=C1[C@@H](CCC(N)=O)C\4(C)C)[C@@H](CCC(N)=O)[C@]\3(C)CC(N)=O)[C@@H](CCC(N)=O)[C@]2(C)CC(N)=O.[CH2-][C@H]1O[C@@H](n2cnc3c(N)ncnc32)[C@@H](O)[C@@H]1O.[Co+3] [AdoCbl, (5′-deoxy-5′-adenosyl) cobamide]	–	–	ambulatory and does not need a wheelchair	dramatic therapeutic effect; also recorded: stops the accumulation of disability and substantially reverses disability; also recorded: stopped and reversed chronic progression of MS; also recorded: effectiveness in stopping and even reversing the progressive accumulation of neurological damage	able to raise their right hand above their head	has recovered memory, cognition, normal balance, does not experience fatigue, no longer has nocturia, has recovered some ability with the right leg, is able to write with the right hand, use a computer keyboard with that right hand, and eat with a fork in the right hand	regained physical abilities lost years before, regained memory and cognitive abilities, and had complete recovery from many common symptoms of MS such as fatigue and poor balance	necessary to prevent relapse to the common symptoms of MS
